Source: patent publication US8703951B2, “Synthesis of 4H-benzo[D]pyrrolo[1,2-A]thiazoles and indolizino[6,7-b]indole derivatives and their use as antitumor therapeutic agents” (Academia Sinica, priority 2011, dated 2014)
Where two headings read alike, the source gives them in different places.

Legend:
[1] = system: human lymphoblastic leukemia (CCRF-CEM); assay: In vitro cytotoxicity, XTT assay, CCRF-CEM; format: cell-based; conditions: Table 7, 72 h, read-out: IC50 (μM) CCRF/CEM
Source text: (§1) Human colon carcinoma HCT-116 cells and human prostate adenocarcinoma PC-3 cells were obtained from American Type Culture Collection (ATCC, Rockville, Md.). Human mammary carcinoma (MX-1) tumor cells were obtained from MSKCC cell bank. The CCRF-CEM human lymphoblastic leukemia cells and their vinblastine resistant subline (CCRF-CEM/VBL, 680-fold resistance in vitro) were obtained from Dr. William Beck of the University of Illinois, Chicago, and CCRF-CEM/Taxol (330-fold resistance in vitro). Resistant cells CCRF-CEM/taxol were produced by exposing the parent cells to increasing sublethal concentration (IC50-IC90) of paclitaxel for six months.
(§2) In preparation for in vitro cytotoxicity assays, cells were cultured at an initial density 2−5×10^4 cells per milliliter. They were maintained in a 5% CO2-humidified atmosphere at 37° C. in RPMI medium 1640 (GIBCO/BRL) containing penicillin (100 units/mL), streptomycin (100 μg/mL, GIBCO/BRL), and 5% heat-inactivated FBS. For cells grown in suspension (such as CCRF-CEM and its sublines), cytotoxicity was measured, by using XTT microculture method^23 in 96-well microtiter plates.
(§3) The cytotoxic effects of the newly synthesized compounds were determined in T-cell acute lymphocytic leukemia (CCRF-CEM) and their resistant subcell lines (CCRF-CEM/Taxol and CCRF-CEM/VBL) by the XTT assay^24 and human solid tumor cells (i.e. breast carcinoma MX-1 and colon carcinoma HCT-116) by the SRB assay^25 in a 72 h incubation using a microplate spectrophotometer as described previously.^25 After the addition of phenazine methosulfate-XTT solution, incubated at 37° C. for 6 h and absorbance at 450 and 630 nm was detected on a microplate reader (EL 340). The cytotoxicity of the newly synthesized compounds against non-small cell lung carcinoma H1299, prostate cancer PC3, oral cancer OECM-1 and glioma U87 were determined by the Alamar blue assay^26 in a 72 h incubation using a microplate spectrophotometer as described previously. After the addition of alamar blue solution, it was incubated at 37° C. for 6 h. Absorbance at 570 and 600 nm was detected on a microplate reader. IC50 values were determined from dose-effect relationship at six or seven concentrations of each drug using the CompuSyn software by Chou and Martin^27 based on the median-effect principle and plot.^28,29 Ranges given for Cisplatin were mean±SE (n=4).

[2] = system: colon carcinoma HCT-116; assay: In vitro cytotoxicity, SRB assay, HCT-116; format: cell-based, human; conditions: Homo sapiens, HCT-116, Table 7, 72 h
Source text: as §1, §2, §3

[3] = system: breast carcinoma MX-1; assay: In vitro cytotoxicity, SRB assay, MX-1; format: cell-based, human; conditions: Homo sapiens, Table 7, 72 h
Source text: as §1, §2, §3

[4] = system: MX-1 human mammary xenograft; assay: Therapeutic efficacy in nude mice bearing MX-1 xenograft; format: in vivo; conditions: FIG. 6; i.v. inj., n=4
Procedure: Athymic nude mice bearing the nu/nu gene were obtained from NCI, Frederick, Md. and used for all human tumor xenografts. Male nude mice, 6 weeks or older, weighing 20-24 g or more were used. Compounds were administered via the tail vein for i.v. injection or infusion as described previously.^26 A typical formulation for chemotherapeutic studies for each drug was dissolved in DSMO to make a 25 mg/ml fresh solution, 0.4 ml of this solution was mixed with 0.3 ml of Tween 80, plus 1.3 ml to make 2 ml of 5 mg/ml solution. Bolus injection volume was 0.1-0.2 ml per mouse. Tumor volume was assessed by measuring length×width×height (or width) by using a caliper. For tumor-bearing nude mice during the course of the experiment, the body weight refers to total weight minus the weight of the tumor. All animal studies were conducted in accordance with the guidelines for the National Institute of Health Guide for the Care and Use of Animals and the protocol approved by the Institutional Animal Care and Use Committee.

[5] = system: non-small cell lung carcinoma H1299; assay: In vitro cytotoxicity, Alamar blue assay, H1299; format: cell-based, human
Procedure: (§4) Prostate cancer PC3, non-small cell lung carcinoma cells H1299, and human glioma cells U87 were purchased from the American Type Culture Collection (Rockville, Md.). OECM-1 (human gingival squamous cell carcinoma cells) was obtained from Dr C.-L. Meng (National Defense Medical College, Taiwan).^22
as §2, §3

[6] = system: oral cancer OECM-1; assay: In vitro cytotoxicity, Alamar blue assay, OECM-1; format: cell-based, human; conditions: Table 7, 72 h, read-out: IC50 (μM) OECM1
Procedure: as §4, §2, §3

[7] = system: glioma U87; assay: In vitro cytotoxicity, Alamar blue assay, U87; format: cell-based, human; conditions: Homo sapiens, Table 7, 72 h
Procedure: as §4, §2, §3

melting point | SMILES | IC50 ([1]; Homo sapiens, CCRF-CEM) | IC50 [2] | IC50 [3] | other results
122 to 123 °C | Cn1c2c(c3ccccc31)Cc1c(CO)c(CO)c(-c3ccccc3)n1C2 [Compound 26b, (3-(phenyl)-6-methyl-6,11-dihydro-5H-indolizino[6,7-b]indole-1,2-diyl)dimethanol] | – | – | – | –
240 to 241 °C | Cn1c2c(c3ccccc31)Cc1c(CO)c(CO)c(-c3ccc(F)cc3)n1C2 [Compound 26c, (3-(4-Fluorophenyl)-6-methyl-6,11-dihydro-5H-indolizino[6,7-b]indole-1,2-diyl)dimethanol] | – | – | – | –
238 to 239 °C | Cn1c2c(c3ccccc31)Cc1c(CO)c(CO)c(-c3ccc(Cl)cc3)n1C2 [Compound 26d, (3-(4-Chlorophenyl)-6-methyl-6,11-dihydro-5H-indolizino[6,7-b]indole-1,2-diyl)-dimethanol] | 4.58 ± 0.378 µM | 13.49 ± 0.088 µM | 11.3 ± 0.42 µM | –
195 to 196 °C | Cn1c2c(c3ccccc31)Cc1c(CO)c(CO)c(-c3ccc(F)c(F)c3)n1C2 [Compound 26e, (3-(3,4-Difluorophenyl)-6-methyl-6,11-dihydro-5H-indolizino[6,7-b]indole-1,2-diyl)dimethanol] | – | – | – | –
– | CC(C)NC(=O)OCc1c(COC(=O)NC(C)C)c2n(c1-c1ccc(F)cc1)CC(C)c1c-2[nH]c2ccccc12 (centres unmarked) [Compound 28c, [3-(4-Fluorophenyl)-6-methyl-6,11-dihydro-5H-indolizino[6,7-b]indole-1,2-diyl]bis(methylene) (isopropylcarbamate)] | – | – | – | complete tumor remission (CR) [4]: CR was achieved; IC50 ([5]; Table 7, 72 h): 16.9 ± 2.69 µM; IC50 [1]: 0.106 ± 0.004 µM; IC50 [6]: 6.56 ± 1.15 µM
200 to 201 °C | Cc1c(CO)c(CO)c2n1Cc1c(c3ccccc3n1C)C2 [Compound 33a, [3,6-Dimethyl-6,11-dihydro-5H-indolizino[6,7-b]indole-1,2-diyl]dimethanol] | 0.042 ± 0.0003 µM | 0.12 ± 0.001 µM | 0.22 ± 0.019 µM | IC50 [7]: 6.54 ± 2.16 µM; IC50 ([5]; Homo sapiens, NCI-H1299, Table 7, 72 h): 3.96 ± 1.79 µM
